In patent US6737383B1, “Herbicidal oxadiazolidines” (priority 1999, dated 2004):

Assays:
[1] = system: bedstraw; experiment: Test B pre/postemergence bedstraw; assay type: in vivo, Galium aparine
Method in brief: (§1)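 Herbicidal effect was estimated by eye on a ten-point control scale after plants spent twelve to sixteen days in a greenhouse following soil or foliar treatment. Foliar sprays targeted plants at one to four leaves; all doses were formulated in a non-phytotoxic solvent with surfactant.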

[2] = system: surinam grass; experiment: Test B pre/postemergence surinam grass; assay type: in vivo, Brachiaria decumbens
Method in brief: as §1

[3] = system: crabgrass; experiment: Test B pre/postemergence crabgrass; assay type: in vivo, Digitaria sanguinalis
Method in brief: as §1

[4] = system: purple nutsedge; experiment: Test B pre/postemergence purple nutsedge; assay type: in vivo, Cyperus rotundus
Method in brief: as §1

[5] = system: pigweed; experiment: Test B pre/postemergence pigweed; assay type: in vivo, Amaranthus retroflexus
Method in brief: as §1

[6] = system: giant foxtail; experiment: Test B pre/postemergence giant foxtail; assay type: in vivo, Setaria faberii
Method in brief: as §1

[7] = system: cocklebur; experiment: Test B pre/postemergence cocklebur; assay type: in vivo, Xanthium strumarium
Method in brief: as §1

[8] = system: bamyardgrass; experiment: Test B flood test barnyardgrass; assay type: in vivo, Echinochloa crus-galli
Method in brief: (§2)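 Read-out is a visual response score from 0 (no effect) to 10 (complete control), assigned by comparison with untreated controls. Treatment was applied at the 2-leaf stage, and plants stayed in the greenhouse for twelve to sixteen days before scoring.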

[9] = system: blackgrass; experiment: Test B pre/postemergence blackgrass; assay type: in vivo, Alopecurus myosuroides
Method in brief: as §1

[10] = system: wild oat; experiment: Test B pre/postemergence wild oat; assay type: in vivo, Avena fatua
Method in brief: as §1

[11] = system: soybean; experiment: Test B pre/postemergence soybean; assay type: in vivo, Glycine max
Method in brief: as §1

[12] = system: smallflower flatsedge; experiment: Test B flood test smallflower flatsedge; assay type: in vivo, Cyperus difformis
Method in brief: as §2

[13] = system: velvetleaf; experiment: Test B pre/postemergence velvetleaf; assay type: in vivo, Abutilon theophrasti
Method in brief: as §1

[14] = system: sugar beet; experiment: Test B pre/postemergence sugar beet; assay type: in vivo, Beta vulgaris
Method in brief: as §1

[15] = system: corn; experiment: Test B pre/postemergence corn; assay type: in vivo, Zea mays
Method in brief: as §1

[16] = system: rice; experiment: Test B flood test rice; assay type: in vivo, Oryza sativa
Method in brief: as §2

[17] = Postemergence, Rate 62 g/ha, scale 0 to 10, 0 is no effect, 10 is complete control
[18] = Postemergence, Rate 250 g/ha, scale 0 to 10, 0 no effect, 10 complete control
[19] = Preemergence, Rate 62 g/ha, scale 0 to 10, 0 is no effect, 10 is complete control
[20] = Preemergence, Rate 125 g/ha, scale 0 to 10 (0 no effect, 10 complete control)
[21] = Preemergence, Rate 250 g/ha, scale of 0 to 10 where 0 is no effect and 10 is complete control
[22] = Preemergence, Rate 500 g/ha, scale 0 (no effect) to 10 (complete control)
[23] = Rate 125 g/ha, Postemergence, scale 0 to 10, 0 no effect, 10 complete control
[24] = Rate 500 g/ha, Postemergence, 0 to 10 scale (0 no effect, 10 complete control)
[25] = Rate 62 g/ha, headed Pre-emergence (flood test species), scale 0 to 10 (0 no effect, 10 complete control)
[26] = Rate 125 g/ha, Postemergence section (flood test species), scale 0 to 10, 0 no effect, 10 complete control
[27] = Rate 125 g/ha, Pre-emergence, flood test species, scale 0 to 10 where 0 is no effect and 10 is complete control
[28] = Rate 250 g/ha, headed Pre-emergence (flood test species), scale 0 to 10 (0 no effect, 10 complete control)
[29] = Rate 500 g/ha, Postemergence section of Table B, 0 to 10 scale (0 no effect, 10 complete control)
[30] = Rate 500 g/ha, headed Pre-emergence (flood test species), scale 0 to 10 (0 no effect, 10 complete control)
[31] = Rate 1000 g/ha, Pre-emergence (as headed), scale 0 to 10
[32] = flood test, listed under Postemergence, Rate 250 g/ha, scale 0 to 10, 0 no effect, 10 complete control
[33] = Rate 2000 g/ha, Pre-emergence (as headed), scale 0 to 10

Cc1cccc(C)c1-n1c(=O)on(C(=O)N(c2ccc(F)cc2)C(C)C)c1=O [Compound 18]
Bedstraw plant response rating [1, 17]: 2 | Bedstraw plant response rating [1, 18]: 7 | Plant response rating, Bedstraw [1, 19]: 0 | Plant response rating, Bedstraw [1, 20]: 0 | Plant response rating, Bedstraw [1, 21]: 0 | Bedstraw plant response rating [1, 22]: 3 | Bedstraw plant response rating [1, 23]: 7 | Bedstraw plant response rating [1, 24]: 9 | B. signalgrass plant response rating [2, 17]: 0 | B. signalgrass plant response rating [2, 18]: 0 | Plant response rating, B. signalgrass [2, 19]: 0 | Plant response rating, B. signalgrass [2, 20]: 0 | Plant response rating, B. signalgrass [2, 21]: 7 | B. signalgrass plant response rating [2, 22]: 8 | B. signalgrass plant response rating [2, 23]: 0 | B. signalgrass plant response rating [2, 24]: 2 | Crabgrass plant response rating [3, 17]: 0 | Crabgrass plant response rating [3, 18]: 7 | Plant response rating, Crabgrass [3, 19]: 6 | Plant response rating, Crabgrass [3, 20]: 5 | Plant response rating, Crabgrass [3, 21]: 8 | Crabgrass plant response rating [3, 22]: 10 | Crabgrass plant response rating [3, 23]: 3 | Crabgrass plant response rating [3, 24]: 9 | Nutsedge plant response rating [4, 17]: 0 | Nutsedge plant response rating [4, 18]: 0 | Plant response rating, Nutsedge [4, 19]: 0 | Plant response rating, Nutsedge [4, 20]: 0 | Plant response rating, Nutsedge [4, 21]: 0 | Nutsedge plant response rating [4, 22]: 0 | Nutsedge plant response rating [4, 23]: 0 | Nutsedge plant response rating [4, 24]: 0 | Redroot pigweed plant response rating [5, 17]: 1 | Redroot pigweed plant response rating [5, 18]: 1 | Plant response rating, Redroot pigweed [5, 19]: 4 | Plant response rating, Redroot pigweed [5, 20]: 7 | Plant response rating, Redroot pigweed [5, 21]: 8 | Redroot pigweed plant response rating [5, 22]: 9 | Redroot pigweed plant response rating [5, 23]: 1 | Redroot pigweed plant response rating [5, 24]: 6 | Giant foxtail plant response rating [6, 17]: 0 | Giant foxtail plant response rating [6, 18]: 1 | Plant response rating, Giant foxtail [6, 19]: 2 | Plant response rating, Giant foxtail [6, 20]: 5 | Plant response rating, Giant foxtail [6, 21]: 8 | Giant foxtail plant response rating [6, 22]: 9 | Giant foxtail plant response rating [6, 23]: 1 | Giant foxtail plant response rating [6, 24]: 3 | Cocklebur plant response rating [7, 17]: 0 | Cocklebur plant response rating [7, 18]: 1 | Plant response rating, Cocklebur [7, 19]: 0 | Plant response rating, Cocklebur [7, 20]: 0 | Plant response rating, Cocklebur [7, 21]: 0 | Cocklebur plant response rating [7, 22]: 0 | Cocklebur plant response rating [7, 23]: 0 | Cocklebur plant response rating [7, 24]: 2 | Barnyardgrass plant response rating [8, 17]: 0 | Barnyardgrass plant response rating [8, 25]: 2 | Barnyardgrass plant response rating [8, 26]: 0 | Barnyardgrass plant response rating [8, 27]: 2 | Barnyardgrass plant response rating [8, 28]: 2 | Barnyardgrass plant response rating [8, 29]: 10 | Plant response rating, Barnyardgrass [8, 30]: 8 | Barnyardgrass plant response rating [8, 31]: 9 | Barnyardgrass plant response rating ([8]; Rate 2000 g/ha, Pre-emergence (as headed), scale 0 to 10, 0 no effect, 10 complete control): 9 | Barnyardgrass plant response rating [8, 32]: 9 | Blackgrass plant response rating [9, 17]: 0 | Blackgrass plant response rating [9, 18]: 3 | Plant response rating, Blackgrass [9, 19]: 2 | Plant response rating, Blackgrass [9, 20]: 0 | Plant response rating, Blackgrass [9, 21]: 5 | Blackgrass plant response rating [9, 22]: 5 | Blackgrass plant response rating [9, 23]: 0 | Blackgrass plant response rating [9, 24]: 3 | Wild oats plant response rating [10, 17]: 0 | Wild oats plant response rating [10, 18]: 0 | Plant response rating, Wild oats [10, 20]: 0 | Plant response rating, Wild oats [10, 21]: 0 | Wild oats plant response rating [10, 22]: 5 | Wild oats plant response rating [10, 23]: 0 | Soybean plant response rating [11, 17]: 2 | Soybean plant response rating [11, 18]: 3 | Plant response rating, Soybean [11, 19]: 0 | Plant response rating, Soybean [11, 20]: 0 | Plant response rating, Soybean [11, 21]: 0 | Soybean plant response rating [11, 22]: 0 | Soybean plant response rating [11, 23]: 3 | S. Flatsedge plant response rating [12, 17]: 0 | S. Flatsedge plant response rating ([12]; Pre-emergence, Rate 1000 g/ha, scale 0 to 10 (0 no effect, 10 complete control)): 0 | S. Flatsedge plant response rating [12, 25]: 0 | S. Flatsedge plant response rating [12, 26]: 0 | S. Flatsedge plant response rating [12, 27]: 0 | S. Flatsedge plant response rating [12, 28]: 0 | Plant response rating, S. Flatsedge [12, 30]: 6 | S. Flatsedge plant response rating [12, 33]: 0 | S. Flatsedge plant response rating [12, 32]: 6 | Velvetleaf plant response rating [13, 17]: 0 | Velvetleaf plant response rating [13, 18]: 1 | Plant response rating, Velvetleaf [13, 19]: 0 | Plant response rating, Velvetleaf [13, 20]: 0 | Plant response rating, Velvetleaf [13, 21]: 0 | Velvetleaf plant response rating [13, 22]: 0 | Velvetleaf plant response rating [13, 23]: 0 | Sugarbeets plant response rating [14, 17]: 0 | Sugarbeets plant response rating [14, 18]: 0 | Plant response rating, Sugarbeets [14, 19]: 0 | Plant response rating, Sugarbeets [14, 20]: 0 | Plant response rating, Sugarbeets [14, 21]: 2 | Sugarbeets plant response rating [14, 22]: 4 | Sugarbeets plant response rating [14, 23]: 0 | Corn plant response rating [15, 17]: 0 | Corn plant response rating [15, 18]: 0 | Plant response rating, Corn [15, 19]: 0 | Plant response rating, Corn [15, 20]: 0 | Plant response rating, Corn [15, 21]: 0 | Corn plant response rating [15, 22]: 0 | Corn plant response rating [15, 23]: 0 | Corn plant response rating [15, 24]: 0 | Rice plant response rating [16, 17]: 0 | Rice plant response rating [16, 25]: 0 | Rice plant response rating [16, 26]: 0 | Rice plant response rating [16, 27]: 0 | Rice plant response rating [16, 28]: 0 | Rice plant response rating [16, 29]: 5 | Plant response rating, Rice [16, 30]: 0 | Rice plant response rating [16, 31]: 0 | Rice plant response rating [16, 33]: 0 | Rice plant response rating [16, 32]: 2
